Measured values from ChEMBL document CHEMBL3351367, “Base-dependent formation of cis and trans olefins and their application in the synthesis of 5-oxo-ETE receptor antagonists” (Bioorg Med Chem Lett, 2014).

Target: Oxoeicosanoid receptor 1 (Homo sapiens, UniProt Q8TDS5)
Assay: Antagonist activity at 5-oxo-ETE receptor in human neutrophils assessed as inhibition of 5-oxo-ETE-induced Ca2+ mobilization incubated for 2 mins prior to 5-oxo-ETE addition by indo-1 staining-based spectrofluorometry
Type: functional

Chain of Oxoeicosanoid receptor 1 (Q8TDS5 whole entry): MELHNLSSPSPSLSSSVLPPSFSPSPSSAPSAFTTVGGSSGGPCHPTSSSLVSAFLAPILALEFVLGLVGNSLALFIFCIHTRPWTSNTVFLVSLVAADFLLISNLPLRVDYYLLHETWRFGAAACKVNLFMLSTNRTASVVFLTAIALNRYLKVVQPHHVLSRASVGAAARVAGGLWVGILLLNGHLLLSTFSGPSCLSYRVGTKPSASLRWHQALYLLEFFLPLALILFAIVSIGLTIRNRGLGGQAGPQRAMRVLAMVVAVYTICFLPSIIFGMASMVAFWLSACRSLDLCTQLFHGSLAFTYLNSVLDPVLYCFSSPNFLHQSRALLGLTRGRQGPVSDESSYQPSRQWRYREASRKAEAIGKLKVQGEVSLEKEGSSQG

| Structure (SMILES) | IC50 |
| --- | --- |
| CCCC/C=C/c1cc2ccc(Cl)cc2n1C(=O)CC(C)CC(=O)O (configuration not stated) | 18.5 µM |
| CCCC/C=C\c1cc2ccc(Cl)cc2n1C(=O)CC(C)CC(=O)O (configuration not stated) | 0.46 µM |
